{"source": "patent US20260297679A1", "about": "“ASSAYS FOR MONITORING INHIBITION OF RNA HELICASE DHX9” (ACCENT THERAPEUTICS, INC., priority 2023, published 2026)", "key": {"[1]": {"system": "LS411N tumors", "assay": "Intra-tumoral human circBRIP1 analysis, LS411N xenograft", "format": "in vivo, human xenograft in female BALB/c nude mice", "details": "30, 100, 200 and 300 mg/kg BID oral, 21 days, 12 hours post last dose; FIG. 4A", "protocol": "This study was conducted to evaluate pharmacodynamics (PD) and pharmacokinetics (PK) of intra-tumoral circular BRIP1 with efficacy of a DHX9 inhibitor (Compound 1, as shown in Table 1).\nIn vivo Efficacy Study: Experiments were performed in female BALB/c nude mice (GenPharmatech Co.). Animals were allowed to acclimate for 7 days before the study. The general health of the animals were evaluated by a veterinarian, and complete health checks were performed prior to the study. […] Animals were housed in polycarbonate cage which is the size of 300×180×150 mm^3 and in an environmentally monitored, well-ventilated room maintained at a temperature of (23±3° C.) and a relative humidity of 40% 70%. […]\nThe LS411N (ATCC; CRL-2159) tumor cell lines were maintained in vitro as monolayer in RPMI 1640 medium supplemented with 10% heat inactivated FBS, at 37° C. in an atmosphere of 5% CO2 in air. The tumor cells were sub-cultured, not exceeding 4-5 passages, and cells growing in an exponential growth phase were harvested and counted for tumor inoculation. […]\nData analysis was performed by using the QuantStudio Thermocycler software to determine threshold Ct values. ΔCt for circBRIP1 or linBRIP1 is calculated by normalizing the target gene Ct to the GAPDH housekeeping gene Ct for each sample. The inhibition activity is calculated by the following formula, whereas: […]"}, "[2]": {"system": "human PBMC", "assay": "circular and linear BRIP1 mRNA in fresh human PBMC (whole blood treated) by qPCR", "format": "cell-based", "details": "24 hours, varying concentrations, FIGS. 9A-9D", "protocol": "This study was conducted to evaluate the circular format of BRIP1 mRNA in fresh human PBMC cells by qPCR.\nHuman whole blood was obtained from Research Blood Components. Blood of each donor was aliquoted into vacutainer tubes containing Acid Citrate Dextrose (ACD).\nTest compounds were prepared in DMSO stock solution and serially diluted. Compound (0.1% final DMSO concentration) was added to vacutainer tubes containing human whole blood. Tubes were placed in tube rotator and incubated at 37 C for 24 hours.\nPBMCs were isolated from human whole blood after compound treatment by density gradient centrifugation using Ficoll-Paque Plus. RNA was extracted from PBMCs using RNeasy Plus Kits according to the manufacturer's (Qiagen) protocol. cDNA was reverse transcribed using RT^2 First Strand Kit according to the manufacturer's (Qiagen) protocol. […]\nData analysis was performed by using the QuantStudio Thermocycler software to determine threshold Ct values. ΔCt for circBRIP1 or linBRIP1 was calculated by normalizing the target gene Ct to the GAPDH housekeeping gene Ct for each sample. The inhibition activity was calculated by the following formula, whereas: […]"}, "[3]": {"system": "human PBMCs", "assay": "proliferation of human PBMCs (Cell-Titer Glo 2.0)", "format": "cell-based", "details": "Compound 1 0.01 μM to 10 μM, 10 days; FIG. 8B", "protocol": "Next, the proliferation of PMBCs was examined following treatment with DHX9 inhibitor using the following assay.\nHuman PBMCs were thawed from a frozen cryotube in a 37° C. water bath and transferred to a flask with medium X-Vivo 15 supplemented with 5% Fetal Bovine Serum (FBS), 1% PenStrep, and 1% Glutamax. Flasks were incubated at 37 C for 30 minutes. PBMCs were harvested from flask and counted. PBMCs were diluted in medium and added to 96 well plates at 100,000 PBMCs per well. A stimulus mixture containing IL-15 at 1 ng/well, IL-21 at 5 ng/well, and CD40L at 5 ng/well was added to each well. Test compounds were prepared in DMSO stock solution and serially diluted. Compound (0.1% final DMSO concentration) was added to each well. DMSO was used as a negative control (high control, HC) and staurosporine was used a positive control (low control, LC). Plates were incubated at 37 C for 0, 2, 4, 6, 8, 10 days. Every other day, medium was replenished with stimulus and diluted compounds.\nAt each CTG time point, plate was removed from incubator and Cell-Titer Glo 2.0 reagent was added to each well according to manufacturer's (Promega) protocol and detected on an Envision. The inhibition activity was calculated following the formula below:\n% Inhibition=100×(ReadoutHC−ReadoutSample)/(ReadoutHC−ReadoutLC)\nPBMCs were exposed to Compound 1 at concentrations ranging from 0.01 μM to 10 μM for 10 days. […]"}}, "data": [{"smiles": "Cc1cccnc1-c1csc(C(=O)Nc2cc(Cl)cc(NS(C)(=O)=O)c2)c1", "note": "[Compound 1, N-(3-chloro-5-methanesulfonamidophenyl)-4-(3-methylpyridin-2-yl)thiophene-2-carboxamide]", "values": [{"measurement": "intra-tumoral circBRIP1 induction", "setting": "[1]", "value": "Dose-dependent intra-tumoral circBRIP1 induction was observed"}, {"measurement": "human circBRIP1 in PBMCs of donor blood", "setting": "[2]", "value": "induced the presence of human circBRIP1 in a dose-responsive manner"}, {"measurement": "linear BRIP1 in PBMCs of donor blood", "setting": "[2]", "value": "not significantly changed"}, {"measurement": "proliferation of PBMCs", "setting": "[3]", "value": "did not inhibit proliferation of PBMCs"}]}]}
